Test results as given in US4337256A, “1-Phenyl isoquinoline-5-acetic acid compounds and analgesic compositions thereof” (priority 1978, dated 1982).

system: left hind paw edema (carrageenin); test: Anti-inflammatory activity: carrageenin-induced left hind paw edema; assay type: in vivo, male Wistar rats; settings: Rattus norvegicus, po, 3 h, read-out: Percent inhibition (edema)
Experimental: Male Wistar rats weighing 120 to 150 g which had been fasted for 24 hours were used in groups each consisting of 5 rats. In each group, the volumes of the left hind paw were measured by a volume differential meter (made by Ugo Basile Company), and each of the test compounds was suspended in an aqueous solution of 0.5% of carboxymethyl cellulose and 2.0% of Tween 80, and administered orally through a tube. After one hour from the administration, 0.1 ml of a 1% suspension of carrageenin in distilled water was subcutaneously injected into the plantar tissues of the left hind paw. Three hours later, the volumes of the left hind paw were again measured. The increase in volume of the left hind paw of each rat in each group (the volume of edema) was measured.

Row | Compound | inhibition in vivo at 1 mg/kg | inhibition in vivo at 3 mg/kg | inhibition in vivo at 10 mg/kg
1 | COc1ccc2c(c1)c(CC(=O)O)c(C)n2C(=O)c1ccc(Cl)cc1 [Indomethacin, reference compound] | 15.9 ± 6.2% | 29.8 ± 5.7% | 40.6 ± 5.1%

same assay, conditions: Rattus norvegicus, po; 0.3 mg/kg, p.o.; 1 h before carrageenin, measured 3 h later; read-out: Percent inhibition (edema)

Row | Compound | inhibition in vivo at 0.3 mg/kg
2 | O=C(O)Cc1cccc2c(-c3ccc(Br)cc3)nccc12 [B, 1-(4-bromophenyl)isoquinoline-5-acetic acid] | 26.8 ± 5.3%

same assay, conditions: Rattus norvegicus, po; 1 mg/kg, p.o.; 1 h before carrageenin, measured 3 h later; read-out: Percent inhibition (edema)

Row | Compound | inhibition in vivo at 1 mg/kg
3 | O=C(O)Cc1cccc2c(C3CCCCC3)nccc12 [Compound L, 1-cyclohexylisoquinoline-5-acetic acid] | 9.7 ± 2%
4 | CC(C(=O)O)c1cccc2c(-c3ccc(Cl)cc3)nccc12 (centres unmarked) [F, 2-[1-(4-chlorophenyl)isoquinolin-5-yl]propionic acid] | 27.3 ± 6.3%
5 | CN(C)c1ccc(-c2nccc3c(CC(=O)O)cccc23)cc1 [D, 1-(4-dimethylaminophenyl)isoquinoline-5-acetic acid] | 16.3 ± 7.1%
6 | O=C(O)Cc1cccc2c(-c3ccc(F)cc3)nccc12 [C, 1-(4-fluorophenyl)isoquinoline-5-acetic acid] | 25.6 ± 3.4%
7 | CC(C)c1nccc2c(CC(=O)O)cccc12 [M, 1-isopropylisoquinoline-5-acetic acid] | 19.3 ± 2.6%
8 | O=C(O)Cc1cccc2c(-c3ccc(Br)cc3)nccc12 [B, 1-(4-bromophenyl)isoquinoline-5-acetic acid] | 33.7 ± 6.1%
9 | COc1ccc(-c2nccc3c(CC(=O)O)cccc23)cc1 [G, 1-(4-methoxyphenyl)isoquinoline-5-acetic acid] | 13.1 ± 9.1%

same assay, conditions: Rattus norvegicus, po; 3 mg/kg, p.o.; 1 h before carrageenin, measured 3 h later; read-out: Percent inhibition (edema)

Row | Compound | inhibition in vivo at 3 mg/kg
10 | CCC(C)c1nccc2c(CC(=O)O)cccc12 (centres unmarked) [P, 1-sec-butylisoquinoline-5-acetic acid] | 15.9 ± 10.4%
11 | Cc1ccc(-c2nccc3c(CC(=O)O)cccc23)cc1 [Compound E, 1-(4-methylphenyl)isoquinoline-5-acetic acid] | 26.9 ± 5.2%
12 | O=C(O)Cc1cccc2c(C3CCCC3)nccc12 [N, 1-cyclopentylisoquinoline-5-acetic acid] | 21.9 ± 8.1%
13 | O=C(O)Cc1cccc2c(C3CCCCC3)nccc12 [Compound L, 1-cyclohexylisoquinoline-5-acetic acid] | 17.4 ± 5.2%
14 | CC(C(=O)O)c1cccc2c(-c3ccc(Cl)cc3)nccc12 (centres unmarked) [F, 2-[1-(4-chlorophenyl)isoquinolin-5-yl]propionic acid] | 33.1 ± 4.8%
15 | CN(C)c1ccc(-c2nccc3c(CC(=O)O)cccc23)cc1 [D, 1-(4-dimethylaminophenyl)isoquinoline-5-acetic acid] | 34.2 ± 5.6%
16 | O=C(O)Cc1cccc2c(-c3ccc(F)cc3)nccc12 [C, 1-(4-fluorophenyl)isoquinoline-5-acetic acid] | 28.3 ± 5.8%
17 | O=C(O)Cc1cccc2c(-c3ccccc3)nccc12 [H, 1-phenylisoquinoline-5-acetic acid] | 21.8 ± 4.5%
18 | CC(C)c1nccc2c(CC(=O)O)cccc12 [M, 1-isopropylisoquinoline-5-acetic acid] | 38.6 ± 3.2%
19 | O=C(O)Cc1cccc2c(-c3ccc(Br)cc3)nccc12 [B, 1-(4-bromophenyl)isoquinoline-5-acetic acid] | 48.2 ± 4.4%
20 | CC(C)Cc1nccc2c(CC(=O)O)cccc12 [O, 1-isobutylisoquinoline-5-acetic acid] | 21.2 ± 7.8%
21 | COc1ccc(-c2nccc3c(CC(=O)O)cccc23)cc1 [G, 1-(4-methoxyphenyl)isoquinoline-5-acetic acid] | 32.3 ± 6.3%
22 | O=C(O)Cc1cccc2c(-c3ccc(C(F)(F)F)cc3)nccc12 [I, 1-(4-trifluoromethylphenyl)isoquinoline-5-acetic acid] | 17 ± 4.5%

same assay, conditions: Rattus norvegicus, po; 10 mg/kg, p.o.; 1 h before carrageenin, measured 3 h later; read-out: Percent inhibition (edema)

Row | Compound | inhibition in vivo at 10 mg/kg
23 | CCC(C)c1nccc2c(CC(=O)O)cccc12 (centres unmarked) [P, 1-sec-butylisoquinoline-5-acetic acid] | 39.6 ± 7%
24 | Cc1ccc(-c2nccc3c(CC(=O)O)cccc23)cc1 [Compound E, 1-(4-methylphenyl)isoquinoline-5-acetic acid] | 49.5 ± 5.1%
25 | O=C(O)Cc1cccc2c(C3CCCC3)nccc12 [N, 1-cyclopentylisoquinoline-5-acetic acid] | 24.8 ± 4.9%
26 | O=C(O)Cc1cccc2c(C3CCCCC3)nccc12 [Compound L, 1-cyclohexylisoquinoline-5-acetic acid] | 43.1 ± 4.3%
27 | CC(C(=O)O)c1cccc2c(-c3ccc(Cl)cc3)nccc12 (centres unmarked) [F, 2-[1-(4-chlorophenyl)isoquinolin-5-yl]propionic acid] | 39.7 ± 5.1%
28 | NC(=O)Cc1cccc2c(-c3ccccc3)nccc12 [K, 1-phenylisoquinoline-5-acetamide] | 9 ± 6.4%
29 | CN(C)c1ccc(-c2nccc3c(CC(=O)O)cccc23)cc1 [D, 1-(4-dimethylaminophenyl)isoquinoline-5-acetic acid] | 42.1 ± 5.3%
30 | O=C(O)Cc1cccc2c(-c3ccc(F)cc3)nccc12 [C, 1-(4-fluorophenyl)isoquinoline-5-acetic acid] | 36.5 ± 4%
31 | CCOC(=O)Cc1cccc2c(-c3ccccc3)nccc12 [J, ethyl-1-phenylisoquinoline-5-acetate] | 23.2 ± 6.1%
32 | O=C(O)Cc1cccc2c(-c3ccccc3)nccc12 [H, 1-phenylisoquinoline-5-acetic acid] | 31 ± 5.2%
33 | CC(C)c1nccc2c(CC(=O)O)cccc12 [M, 1-isopropylisoquinoline-5-acetic acid] | 62.9 ± 5.9%
34 | CC(C)Cc1nccc2c(CC(=O)O)cccc12 [O, 1-isobutylisoquinoline-5-acetic acid] | 30.3 ± 5.6%
35 | COc1ccc(-c2nccc3c(CC(=O)O)cccc23)cc1 [G, 1-(4-methoxyphenyl)isoquinoline-5-acetic acid] | 41.2 ± 7.2%
36 | O=C(O)Cc1cccc2c(-c3ccc(C(F)(F)F)cc3)nccc12 [I, 1-(4-trifluoromethylphenyl)isoquinoline-5-acetic acid] | 24.5 ± 7.1%

same assay, conditions: Rattus norvegicus, po; 30 mg/kg, p.o.; 1 h before carrageenin, measured 3 h later; read-out: Percent inhibition (edema)

Row | Compound | inhibition in vivo at 30 mg/kg
37 | NC(=O)Cc1cccc2c(-c3ccccc3)nccc12 [K, 1-phenylisoquinoline-5-acetamide] | 39.7 ± 5.8%
38 | CCOC(=O)Cc1cccc2c(-c3ccccc3)nccc12 [J, ethyl-1-phenylisoquinoline-5-acetate] | 41.1 ± 4.8%
39 | O=C(O)Cc1cccc2c(-c3ccccc3)nccc12 [H, 1-phenylisoquinoline-5-acetic acid] | 46.4 ± 7.7%
40 | CC(C)Cc1nccc2c(CC(=O)O)cccc12 [O, 1-isobutylisoquinoline-5-acetic acid] | 42.8 ± 8.8%
41 | O=C(O)Cc1cccc2c(-c3ccc(C(F)(F)F)cc3)nccc12 [I, 1-(4-trifluoromethylphenyl)isoquinoline-5-acetic acid] | 30.2 ± 5.3%

system: writhings (acetic acid) in the mice; test: Analgesic activity: acetic acid writhing test; assay type: in vivo, male mice (ddY); settings: Mus musculus, po, 1 h, read-out: ED50 (analgesic, writhing inhibition)
Experimental: Male mice (ddY) weighing 18 to 22 g were used in groups each consisting of 10 mice. Each of the compounds was suspended in an aqueous solution of 0.5% of carboxymethyl cellulose and 2.0% of Tween 80, and administered orally through a tube. After one hour from the administration, 0.6% acetic acid was administered intraperitoneally in an amount of 0.1 ml per 10 g of body weight, and the number of writhings which occurred in the mice during a period of 20 minutes after the administration was measured. The percent inhibition was calculated from the following equation, and the ED50 values of the test compounds were calculated from the percent inhibition in accordance with the method of Litchfield-Wilcoxon.

Row | Compound | ED50
42 | COc1ccc2c(c1)c(CC(=O)O)c(C)n2C(=O)c1ccc(Cl)cc1 [Indomethacin, reference compound] | 0.21 mg/kg

same assay, conditions: Mus musculus, po; p.o. 1 h before 0.6% acetic acid i.p.; parentheses show 95% confidence limits; read-out: ED50 (analgesic, writhing inhibition)

Row | Compound | ED50
43 | Cc1ccc(-c2nccc3c(CC(=O)O)cccc23)cc1 [Compound E, 1-(4-methylphenyl)isoquinoline-5-acetic acid] | 4.3 mg/kg
44 | O=C(O)Cc1cccc2c(C3CCCCC3)nccc12 [Compound L, 1-cyclohexylisoquinoline-5-acetic acid] | 8.5 mg/kg
45 | CC(C(=O)O)c1cccc2c(-c3ccc(Cl)cc3)nccc12 (centres unmarked) [F, 2-[1-(4-chlorophenyl)isoquinolin-5-yl]propionic acid] | 3.2 mg/kg
46 | CN(C)c1ccc(-c2nccc3c(CC(=O)O)cccc23)cc1 [D, 1-(4-dimethylaminophenyl)isoquinoline-5-acetic acid] | 0.11 mg/kg
47 | O=C(O)Cc1cccc2c(-c3ccc(F)cc3)nccc12 [C, 1-(4-fluorophenyl)isoquinoline-5-acetic acid] | 8.8 mg/kg
48 | O=C(O)Cc1cccc2c(-c3ccccc3)nccc12 [H, 1-phenylisoquinoline-5-acetic acid] | 4.1 mg/kg
49 | CC(C)c1nccc2c(CC(=O)O)cccc12 [M, 1-isopropylisoquinoline-5-acetic acid] | 3.5 mg/kg
50 | O=C(O)Cc1cccc2c(-c3ccc(Br)cc3)nccc12 [B, 1-(4-bromophenyl)isoquinoline-5-acetic acid] | 1 mg/kg
51 | COc1ccc(-c2nccc3c(CC(=O)O)cccc23)cc1 [G, 1-(4-methoxyphenyl)isoquinoline-5-acetic acid] | 9.2 mg/kg

system: stomach mucosal membrane; test: Ulcerogenic activity: gastric ulceration; assay type: in vivo, male Wistar rats; settings: 10 mg/kg, p.o.; 4 h
Experimental: Each of the test compounds was orally administered by the same way as in the test on anti-inflammatory activity to male Wistar rats weighing 120 to 150 g which had been fasted for 24 hours. Four hours later, they were killed with ether.

Row | Compound | Gastric ulceration: bleeding at the mucosal membrane | Gastric ulceration: damage beneath the mucosal membrane
52 | Cc1ccc(-c2nccc3c(CC(=O)O)cccc23)cc1 [Compound E, 1-(4-methylphenyl)isoquinoline-5-acetic acid] | 0/5 | 0/5
53 | O=C(O)Cc1cccc2c(C3CCCCC3)nccc12 [Compound L, 1-cyclohexylisoquinoline-5-acetic acid] | 0/5 | 0/5
54 | CC(C(=O)O)c1cccc2c(-c3ccc(Cl)cc3)nccc12 (centres unmarked) [F, 2-[1-(4-chlorophenyl)isoquinolin-5-yl]propionic acid] | 1/5 | 0/5
55 | CN(C)c1ccc(-c2nccc3c(CC(=O)O)cccc23)cc1 [D, 1-(4-dimethylaminophenyl)isoquinoline-5-acetic acid] | 0/6 | 0/6
56 | O=C(O)Cc1cccc2c(-c3ccccc3)nccc12 [H, 1-phenylisoquinoline-5-acetic acid] | 1/15 | 1/15
57 | O=C(O)Cc1cccc2c(-c3ccc(Br)cc3)nccc12 [B, 1-(4-bromophenyl)isoquinoline-5-acetic acid] | 0/5 | 0/5

same assay, conditions: 30 mg/kg, p.o.; 4 h

Row | Compound | Gastric ulceration: bleeding at the mucosal membrane | Gastric ulceration: damage beneath the mucosal membrane
58 | Cc1ccc(-c2nccc3c(CC(=O)O)cccc23)cc1 [Compound E, 1-(4-methylphenyl)isoquinoline-5-acetic acid] | 0/5 | 4/5
59 | O=C(O)Cc1cccc2c(C3CCCCC3)nccc12 [Compound L, 1-cyclohexylisoquinoline-5-acetic acid] | 3/5 | 3/5
60 | CC(C(=O)O)c1cccc2c(-c3ccc(Cl)cc3)nccc12 (centres unmarked) [F, 2-[1-(4-chlorophenyl)isoquinolin-5-yl]propionic acid] | 2/5 | 2/5
61 | CN(C)c1ccc(-c2nccc3c(CC(=O)O)cccc23)cc1 [D, 1-(4-dimethylaminophenyl)isoquinoline-5-acetic acid] | 3/6 | 3/6
62 | O=C(O)Cc1cccc2c(-c3ccccc3)nccc12 [H, 1-phenylisoquinoline-5-acetic acid] | 4/20 | 2/20
63 | O=C(O)Cc1cccc2c(-c3ccc(Br)cc3)nccc12 [B, 1-(4-bromophenyl)isoquinoline-5-acetic acid] | 2/5 | 4/5
64 | COc1ccc(-c2nccc3c(CC(=O)O)cccc23)cc1 [G, 1-(4-methoxyphenyl)isoquinoline-5-acetic acid] | 0/5 | 0/5

system: not listed separately; test: Toxicity test (LD50); settings: mouse, in vivo; oral, observed for 1 week; parentheses show 95% confidence limits
Experimental: Each of the test compounds was suspended in a physiological saline solution having dissolved therein 2% of Tween 80, and orally administered through a tube to groups of ddY mice (male: 19 to 22 g) each group consisting of 6 mice. The mice were then observed for 1 week. The LD50 values were calculated from the lethality in accordance with the method of Litchfield-Wilcoxon.

Row | Compound | LD50 at 168 h
65 | Cc1ccc(-c2nccc3c(CC(=O)O)cccc23)cc1 [Compound E, 1-(4-methylphenyl)isoquinoline-5-acetic acid] | > 300 mg/kg
66 | O=C(O)Cc1cccc2c(C3CCCCC3)nccc12 [Compound L, 1-cyclohexylisoquinoline-5-acetic acid] | > 300 mg/kg
67 | COc1ccc2c(c1)c(CC(=O)O)c(C)n2C(=O)c1ccc(Cl)cc1 [Indomethacin, reference compound] | 17.3 mg/kg
68 | CN(C)c1ccc(-c2nccc3c(CC(=O)O)cccc23)cc1 [D, 1-(4-dimethylaminophenyl)isoquinoline-5-acetic acid] | > 300 mg/kg
69 | O=C(O)Cc1cccc2c(-c3ccc(F)cc3)nccc12 [C, 1-(4-fluorophenyl)isoquinoline-5-acetic acid] | > 300 mg/kg
70 | O=C(O)Cc1cccc2c(-c3ccccc3)nccc12 [H, 1-phenylisoquinoline-5-acetic acid] | > 300 mg/kg
71 | CC(C)c1nccc2c(CC(=O)O)cccc12 [M, 1-isopropylisoquinoline-5-acetic acid] | 250 mg/kg
72 | O=C(O)Cc1cccc2c(-c3ccc(Br)cc3)nccc12 [B, 1-(4-bromophenyl)isoquinoline-5-acetic acid] | 182 mg/kg
73 | COc1ccc(-c2nccc3c(CC(=O)O)cccc23)cc1 [G, 1-(4-methoxyphenyl)isoquinoline-5-acetic acid] | > 300 mg/kg

system: digestive organs; test: not given; settings: known agents, statement in words; cited from earlier work

Row | Compound | troubles in the digestive organs
74 | COc1ccc2c(c1)c(CC(=O)O)c(C)n2C(=O)c1ccc(Cl)cc1 [Indomethacin, reference compound] | fairly heavy troubles in the digestive organs
